In patent US20260235580A1, “P21-ACTIVATED KINASE 4 INHIBITION AND E-CADHERIN […] AND SCREENING METHOD THEREFOR” (priority 2023, published 2026):
Peptide text beside a SMILES is read from it. * marks the point of attachment. Cbz = O=C(OCc1ccccc1)*

How the values were obtained:
Type in all cases: cell-based
E-cadherin [1] = assay: MG132 treatment of PANC-1 cells stably expressing shCTRL or shPAK4, western blot for E-cadherin (normalized by Vinculin); conditions: specific concentrations of MG132 for 24 hours
Description: (§1) Experiment Method: PANC-1 cells were treated with 20 μg/mL cycloheximide (CHX), harvested at designated time points, and detected by western blot for E-cadherin, ZEB1, and Vinculin antibodies (left side of FIG. 5A). Quantitative evaluation of E-cadherin and ZEB1 protein levels was performed (normalized by Vinculin, right side of FIG. 5A). SU.86.86 and PANC-1 cells were cultured overnight in 1% P/S/10% FBS/DMEM, then converted to DMEM without Ca2+, and cultured for a specific time. E-cadherin, ZEB1, and Vinculin were detected by western blot (top side of FIG. 5B). E-cadherin and ZEB1 protein levels were quantitatively assessed (normalized by Vinculin, bottom side of FIG. 5B). PANC-1 cells stably expressing shCTRL or shPAK4 were treated with specific concentrations of MG132 for 24 hours and then detected by western blot for E-cadherin, ZEB1, and Vinculin antibodies (left side of FIG. 5C). E-cadherin and ZEB1 protein levels were quantitatively assessed (normalized by Vinculin, right side of FIG. 5C), After PANC-1 cells stably expressing shCTRL or shPAK4 were cultured in a serum-free medium for a certain period of time, activated Cdc42 and Rac1 interacting with GST-PBD-agarose were harvested from whole cell proteins. The activity of Cdc42 and Rac1 was detected by western blot (FIG. 5D). […]

E-cadherin [2] = assay: Cycloheximide treatment of PANC-1 shCTRL/shPAK4 cells, western blot for E-cadherin (normalized by Vinculin); conditions: 20 μg/mL cycloheximide
Description: as §1

ZEB1 = assay: Cycloheximide treatment of PANC-1 shCTRL/shPAK4 cells, western blot for ZEB1 (normalized by Vinculin); conditions: 20 μg/mL cycloheximide
Description: as §1

[3] = PANC-1 PAK4 knockdown (shPAK4) cells
[4] = PANC-1 shCTRL cells, harvested at designated time points

Structure (SMILES)	amount of protein of E-cadherin (E-cadherin [1]; [3])	amount of protein of E-cadherin (E-cadherin [1]; PANC-1 shCTRL cells)	E-cadherin expression (E-cadherin [2]; [3])	E-cadherin production (E-cadherin [2]; [4])	ZEB1 expression (ZEB1; [3])	ZEB1 production (ZEB1; [4])
CC(C)C[C@@H](C=O)NC(=O)[C@H](CC(C)C)NC(=O)[C@H](CC(C)C)NC(=O)OCc1ccccc1 [MG132] (Cbz-Leu-Leu-Leu-aldehyde)	such a pattern was not observed	decreased in a concentration-dependent manner	–	–	–	–
C[C@@H]1C[C@@H]([C@H](O)CC2CC(=O)NC(=O)C2)C(=O)[C@@H](C)C1 [cyclohexamide, cycloheximide]	–	–	remained the same	inhibited	significantly reduced	inhibited
